# Reference: PubChem BioAssay (NCI)
#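 Cells were grown in 96-well plates and exposed to each compound for 48 hours at five concentrations; endpoints were interpolated linearly between bracketing concentrations, or set to the highest concentration if not reached. TGI is the concentration that stops growth completely.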
# Tests used:
# Experiment in all cases: NCI tumour cell line growth inhibition, 48 h
# 786-0 renal = system: 786-0 renal
# A498 renal = system: A498 renal
# A549 NSCLC = system: A549 NSCLC
# ACHN renal = system: ACHN renal
# BT-549 breast = system: BT-549 breast
# CAKI-1 renal = system: CAKI-1 renal
# CCRF-CEM leukemia = system: CCRF-CEM leukemia
# COLO 205 colon = system: COLO 205 colon
# DLD-1 colon = system: DLD-1 colon
# DMS 114 small cell lung = system: DMS 114 small cell lung
# DMS 273 small cell lung = system: DMS 273 small cell lung
# DU-145 prostate = system: DU-145 prostate
# EKVX NSCLC = system: EKVX NSCLC
# HCC-2998 colon = system: HCC-2998 colon
# HCT-116 colon = system: HCT-116 colon
# HCT-15 colon = system: HCT-15 colon
# HOP-18 NSCLC = system: HOP-18 NSCLC
# HOP-62 NSCLC = system: HOP-62 NSCLC
# HOP-92 NSCLC = system: HOP-92 NSCLC
# HS 578T breast = system: HS 578T breast
# HT29 colon = system: HT29 colon
# IGROV1 ovarian = system: IGROV1 ovarian
# K-562 leukemia = system: K-562 leukemia
# KM12 colon = system: KM12 colon
# KM20L2 colon = system: KM20L2 colon
# LOX IMVI melanoma = system: LOX IMVI melanoma
# LXFL 529 NSCLC = system: LXFL 529 NSCLC
# M14 melanoma = system: M14 melanoma
# M19-MEL melanoma = system: M19-MEL melanoma
# MALME-3M melanoma = system: MALME-3M melanoma
# MCF7 breast = system: MCF7 breast
# MDA-MB-231 breast = system: MDA-MB-231 breast
# MDA-MB-435 = system: MDA-MB-435
# MDA-N = system: MDA-N
# MOLT-4 leukemia = system: MOLT-4 leukemia
# NCI-H226 lung = system: NCI-H226 lung
# NCI-H23 lung = system: NCI-H23 lung
# NCI-H460 lung = system: NCI-H460 lung
# OVCAR-3 ovarian = system: OVCAR-3 ovarian
# OVCAR-4 ovarian = system: OVCAR-4 ovarian
# OVCAR-5 ovarian = system: OVCAR-5 ovarian
# OVCAR-8 ovarian = system: OVCAR-8 ovarian
# PC-3 prostate = system: PC-3 prostate
# RPMI-8226 leukemia = system: RPMI-8226 leukemia
# RXF-631 renal = system: RXF-631 renal
# SF-268 CNS = system: SF-268 CNS
# SF-295 CNS = system: SF-295 CNS
# SF-539 CNS = system: SF-539 CNS
# SK-MEL-2 melanoma = system: SK-MEL-2 melanoma
# SK-MEL-28 melanoma = system: SK-MEL-28 melanoma
# SK-MEL-5 melanoma = system: SK-MEL-5 melanoma
# SK-OV-3 ovarian = system: SK-OV-3 ovarian
# SN12C renal = system: SN12C renal
# SNB-19 CNS = system: SNB-19 CNS
# SNB-75 CNS = system: SNB-75 CNS
# SNB-78 CNS = system: SNB-78 CNS
# SR leukemia = system: SR leukemia
# SW-620 colon = system: SW-620 colon
# T-47D breast = system: T-47D breast
# TK-10 renal = system: TK-10 renal
# U251 CNS = system: U251 CNS
# UACC-257 melanoma = system: UACC-257 melanoma
# UACC-62 melanoma = system: UACC-62 melanoma
# UO-31 renal = system: UO-31 renal
# XF 498 CNS = system: XF 498 CNS
smiles,measurement,setting,value
O=C1c2c(O)cccc2C(C(=O)CCCC(=O)C2c3cccc(O)c3C(=O)c3c(O)cccc32)c2cccc(O)c21,TGI,786-0 renal,9720 nM
same,TGI,A498 renal,3660 nM
same,TGI,A549 NSCLC,1640 nM
same,TGI,ACHN renal,1020 nM
same,TGI,BT-549 breast,4740 nM
same,TGI,CAKI-1 renal,4450 nM
same,TGI,CCRF-CEM leukemia,8020 nM
same,TGI,COLO 205 colon,1320 nM
same,TGI,DLD-1 colon,7000 nM
same,TGI,DMS 114 small cell lung,502 nM
same,TGI,DMS 273 small cell lung,1260 nM
same,TGI,DU-145 prostate,2020 nM
same,TGI,EKVX NSCLC,2350 nM
same,TGI,HCC-2998 colon,3400 nM
same,TGI,HCT-116 colon,3790 nM
same,TGI,HCT-15 colon,1380 nM
same,TGI,HOP-18 NSCLC,828 nM
same,TGI,HOP-62 NSCLC,2090 nM
same,TGI,HOP-92 NSCLC,1000 nM
same,TGI,HS 578T breast,202 nM
same,TGI,HT29 colon,2480 nM
same,TGI,IGROV1 ovarian,2410 nM
same,TGI,K-562 leukemia,4860 nM
same,TGI,KM12 colon,868 nM
same,TGI,KM20L2 colon,8680 nM
same,TGI,LOX IMVI melanoma,1800 nM
same,TGI,LXFL 529 NSCLC,480 nM
same,TGI,M14 melanoma,2480 nM
same,TGI,M19-MEL melanoma,4170 nM
same,TGI,MALME-3M melanoma,2850 nM
same,TGI,MCF7 breast,25000 nM
same,TGI,MDA-MB-231 breast,329 nM
same,TGI,MDA-MB-435,2500 nM
same,TGI,MDA-N,3390 nM
same,TGI,MOLT-4 leukemia,17500 nM
same,TGI,NCI-H226 lung,1470 nM
same,TGI,NCI-H23 lung,1130 nM
same,TGI,NCI-H460 lung,661 nM
same,TGI,OVCAR-3 ovarian,798 nM
same,TGI,OVCAR-4 ovarian,820 nM
same,TGI,OVCAR-5 ovarian,1180 nM
same,TGI,OVCAR-8 ovarian,2770 nM
same,TGI,PC-3 prostate,467 nM
same,TGI,RPMI-8226 leukemia,752 nM
same,TGI,RXF-631 renal,3990 nM
same,TGI,SF-268 CNS,3390 nM
same,TGI,SF-295 CNS,2220 nM
same,TGI,SF-539 CNS,675 nM
same,TGI,SK-MEL-2 melanoma,861 nM
same,TGI,SK-MEL-28 melanoma,4530 nM
same,TGI,SK-MEL-5 melanoma,671 nM
same,TGI,SK-OV-3 ovarian,1050 nM
same,TGI,SN12C renal,12200 nM
same,TGI,SNB-19 CNS,4120 nM
same,TGI,SNB-75 CNS,2820 nM
same,TGI,SNB-78 CNS,785 nM
same,TGI,SR leukemia,4640 nM
same,TGI,SW-620 colon,14300 nM
same,TGI,T-47D breast,941 nM
same,TGI,TK-10 renal,1670 nM
same,TGI,U251 CNS,1880 nM
same,TGI,UACC-257 melanoma,893 nM
same,TGI,UACC-62 melanoma,2040 nM
same,TGI,UO-31 renal,1080 nM
same,TGI,XF 498 CNS,226 nM
